# Test results reported in ChEMBL document CHEMBL1201862, “PubChem BioAssay data set” (2004).
#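 Five compound concentrations were applied to cells in 96-well plates for 48 hours; endpoints were derived by simple linear interpolation of the resulting dose-response curve. GI50 marks 50% less growth.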 The source made the active and inactive calls. Rule as the data show it: active = GI50 up to about 1.1 µM and inactive = higher.
# Experiments:
# Experiment in all cases: DTP human tumour cell line panel, 48 h
# SK-MEL-2 = test system: SK-MEL-2
# OVCAR-5 = test system: OVCAR-5
# A498 = test system: A498
# MDA-MB-435 = test system: MDA-MB-435
# ACHN = test system: ACHN
# 786-0 = test system: 786-0
# MCF7 = test system: MCF7
# CAKI-1 = test system: CAKI-1
# SW-620 = test system: SW-620
# HOP-62 = test system: HOP-62
# MOLT-4 = test system: MOLT-4
# NCI/ADR-RES = test system: NCI/ADR-RES
# KM12 = test system: KM12
# NCI-H226 = test system: NCI-H226
# HCT-116 = test system: HCT-116
# SR = test system: SR
# MDA-MB-231 = test system: MDA-MB-231
# U-251 = test system: U-251
# OVCAR-8 = test system: OVCAR-8
# RPMI-8226 = test system: RPMI-8226
# SF-268 = test system: SF-268
# MDA-N = test system: MDA-N
# A549 = test system: A549
# M14 = test system: M14
# BT-549 = test system: BT-549
# HT-29 = test system: HT-29
# DU-145 = test system: DU-145
# UACC-257 = test system: UACC-257
# COLO 205 = test system: COLO 205
# SF-539 = test system: SF-539
# SN12C = test system: SN12C
# IGROV-1 = test system: IGROV-1
# PC-3 = test system: PC-3
# SK-MEL-5 = test system: SK-MEL-5
# SK-MEL-28 = test system: SK-MEL-28
# SNB-19 = test system: SNB-19
# RXF 393 = test system: RXF 393
# SK-OV-3 = test system: SK-OV-3
# UO-31 = test system: UO-31
# SNB-75 = test system: SNB-75
# LOX IMVI = test system: LOX IMVI
# HL-60 = test system: HL-60
# NCI-H522 = test system: NCI-H522
# CCRF-CEM = test system: CCRF-CEM
# Hs-578T = test system: Hs-578T
# TK-10 = test system: TK-10
# T47D = test system: T47D
# SF-295 = test system: SF-295
# UACC-62 = test system: UACC-62
# EKVX = test system: EKVX
# Malme-3M = test system: Malme-3M
# HCT-15 = test system: HCT-15
# NCI-H23 = test system: NCI-H23
# K562 = test system: K562
compound,measurement,setting,value
COc1cc(C(=O)CBr)c(OC)cc1C,GI50,SK-MEL-2,> 100 µM (inactive)
same,GI50,OVCAR-5,> 100 µM (inactive)
same,GI50,A498,84.7 µM (inactive)
same,GI50,MDA-MB-435,> 100 µM (inactive)
same,GI50,ACHN,> 100 µM (inactive)
same,GI50,786-0,> 100 µM (inactive)
same,GI50,MCF7,> 100 µM (inactive)
same,GI50,CAKI-1,> 100 µM (inactive)
same,GI50,SW-620,> 100 µM (inactive)
same,GI50,HOP-62,> 100 µM (inactive)
same,GI50,MOLT-4,> 100 µM (inactive)
same,GI50,NCI/ADR-RES,> 100 µM (inactive)
same,GI50,KM12,> 100 µM (inactive)
same,GI50,NCI-H226,75.5 µM (inactive)
same,GI50,HCT-116,> 100 µM (inactive)
same,GI50,SR,> 100 µM (inactive)
same,GI50,MDA-MB-231,> 100 µM (inactive)
same,GI50,U-251,> 100 µM (inactive)
same,GI50,OVCAR-8,> 100 µM (inactive)
same,GI50,RPMI-8226,> 100 µM (inactive)
same,GI50,SF-268,> 100 µM (inactive)
same,GI50,MDA-N,> 100 µM (inactive)
same,GI50,A549,> 100 µM (inactive)
same,GI50,M14,> 100 µM (inactive)
same,GI50,BT-549,36.2 µM (inactive)
same,GI50,HT-29,> 100 µM (inactive)
same,GI50,DU-145,> 100 µM (inactive)
same,GI50,UACC-257,> 100 µM (inactive)
same,GI50,COLO 205,> 100 µM (inactive)
same,GI50,SF-539,> 100 µM (inactive)
same,GI50,SN12C,> 100 µM (inactive)
same,GI50,IGROV-1,> 100 µM (inactive)
same,GI50,PC-3,> 100 µM (inactive)
same,GI50,SK-MEL-5,52.7 µM (inactive)
same,GI50,SK-MEL-28,> 100 µM (inactive)
same,GI50,SNB-19,> 100 µM (inactive)
same,GI50,RXF 393,> 100 µM (inactive)
same,GI50,SK-OV-3,> 100 µM (inactive)
same,GI50,UO-31,97.3 µM (inactive)
same,GI50,SNB-75,> 10 µM (inactive)
same,GI50,LOX IMVI,> 100 µM (inactive)
same,GI50,HL-60,> 100 µM (inactive)
same,GI50,NCI-H522,> 100 µM (inactive)
same,GI50,CCRF-CEM,> 100 µM (inactive)
same,GI50,Hs-578T,72.4 µM (inactive)
same,GI50,TK-10,> 100 µM (inactive)
same,GI50,T47D,> 100 µM (inactive)
same,GI50,SF-295,> 100 µM (inactive)
same,GI50,UACC-62,85.7 µM (inactive)
same,GI50,EKVX,> 100 µM (inactive)
same,GI50,Malme-3M,> 100 µM (inactive)
same,GI50,HCT-15,> 100 µM
same,GI50,NCI-H23,> 100 µM (inactive)
same,GI50,K562,> 100 µM (inactive)
